Data: ChEMBL document CHEMBL1138895, “Synthesis and antibacterial activity of nocathiacin I analogues” (Bioorg Med Chem Lett, 2006)
≈ marks a conversion by molar mass, not a printed value.

What was measured:
Staphylococcus aureus = assay: Antibacterial activity against methicillin-sensitive Staphylococcus aureus A15090; type: functional
Streptococcus pneumoniae = assay: Antibacterial activity against penicillin resistant Streptococcus pneumoniae A28272; type: functional
Enterococcus faecalis = assay: Antibacterial activity against […] A20688; type: functional
[1] = Solubility at pH 3.8; type: physicochemical; conditions: buffer
[2] = Solubility at pH 3.4; type: physicochemical; conditions: buffer
Mus musculus = species: Mus musculus; assay: Activity against Staphylococcus aureus A15090 infected ICR mouse after 8 days; type: functional; conditions: 192 h, read-out: PD50
[3] = Solubility at pH 3.1; type: physicochemical; conditions: buffer
[4] = Solubility at pH 4.0; type: physicochemical; conditions: buffer
[5] = Solubility at pH 3.3; type: physicochemical; conditions: buffer
[6] = Solubility at pH 2.8; type: physicochemical; conditions: buffer
[7] = Solubility at pH 8.1; type: physicochemical; conditions: buffer
[8] = Solubility at pH 8.4; type: physicochemical; conditions: buffer
[9] = Solubility at pH 3.5; type: physicochemical; conditions: buffer
[10] = Solubility at pH 8.7; type: physicochemical; conditions: buffer

SMILES | MIC (Staphylococcus aureus) | MIC (Streptococcus pneumoniae) | MIC (Enterococcus faecalis) | ED50 (Mus musculus) | other results
CO/C(C)=C1/NC(=O)[C@H]([C@@H](C)O)NC(=O)c2csc(n2)-c2cc(O)c(-c3nc(C(=O)N[C@@H](C)C(=O)NCc4cc(O)cc(O)c4)cs3)nc2-c2csc(n2)[C@@H]2COC(=O)c3c4c5c(cccc5n3O)COC(=O)[C@@H](O[C@H]3C[C@](C)(O)[C@H](N(C)C)[C@H](C)O3)[C@@H](OC4)[C@H](NC(=O)c3csc1n3)c1nc(cs1)C(=O)N2 | 1 µg/mL (≈ 0.64 µM) | 0.25 µg/mL (≈ 0.16 µM) | 2 µg/mL (≈ 1.28 µM) |  | solubility [1]: < 0.3 µg/mL
CO/C(C)=C1/NC(=O)[C@H]([C@@H](C)O)NC(=O)c2csc(n2)-c2cc(O)c(-c3nc(C(=O)N[C@@H](C)C(=O)N(CCO)CCO)cs3)nc2-c2csc(n2)[C@@H]2COC(=O)c3c4c5c(cccc5n3O)COC(=O)[C@@H](O[C@H]3C[C@](C)(O)[C@H](N(C)C)[C@H](C)O3)[C@@H](OC4)[C@H](NC(=O)c3csc1n3)c1nc(cs1)C(=O)N2 | 0.25 µg/mL (≈ 0.164 µM) | 0.25 µg/mL (≈ 0.164 µM) | 0.5 µg/mL (≈ 0.327 µM) | > 10 mg/kg | solubility [2]: > 1200 µg/mL
CO/C(C)=C1/NC(=O)[C@H]([C@@H](C)O)NC(=O)c2csc(n2)-c2cc(O)c(-c3nc(C(=O)N[C@@H](C)C(=O)N(C)CCO)cs3)nc2-c2csc(n2)[C@@H]2COC(=O)c3c4c5c(cccc5n3O)COC(=O)[C@@H](O[C@H]3C[C@](C)(O)[C@H](N(C)C)[C@H](C)O3)[C@@H](OC4)[C@H](NC(=O)c3csc1n3)c1nc(cs1)C(=O)N2 | 0.06 µg/mL (≈ 0.0401 µM) | 0.003 µg/mL (≈ 0.002 µM) | 0.03 µg/mL (≈ 0.02 µM) | 1.65 mg/kg | solubility [3]: 2300 µg/mL (≈ 1540 µM); solubility [4]: 2300 µg/mL (≈ 1540 µM)
CO/C(C)=C1/NC(=O)[C@H]([C@@H](C)O)NC(=O)c2csc(n2)-c2cc(O)c(-c3nc(C(=O)N[C@@H](C)C(=O)N4CCC(P(=O)(OC)OC)CC4)cs3)nc2-c2csc(n2)[C@@H]2COC(=O)c3c4c5c(cccc5n3O)COC(=O)[C@@H](O[C@H]3C[C@](C)(O)[C@H](N(C)C)[C@H](C)O3)[C@@H](OC4)[C@H](NC(=O)c3csc1n3)c1nc(cs1)C(=O)N2 | 0.015 µg/mL (≈ 0.00928 µM) | 0.015 µg/mL (≈ 0.00928 µM) | 0.03 µg/mL (≈ 0.0186 µM) |  | solubility [5]: > 3000 µg/mL
CO/C(C)=C1/NC(=O)[C@H]([C@@H](C)O)NC(=O)c2csc(n2)-c2cc(O)c(-c3nc(C(=O)N[C@@H](C)C(=O)NCCCOC4O[C@H](CO)[C@@H](O)[C@H](O)[C@H]4O)cs3)nc2-c2csc(n2)[C@@H]2COC(=O)c3c4c5c(cccc5n3O)COC(=O)[C@@H](O[C@H]3C[C@](C)(O)[C@H](N(C)C)[C@H](C)O3)[C@@H](OC4)[C@H](NC(=O)c3csc1n3)c1nc(cs1)C(=O)N2 (stereo not given in full) | 4 µg/mL (≈ 2.41 µM) | 1 µg/mL (≈ 0.602 µM) | 8 µg/mL (≈ 4.82 µM) |  | solubility [6]: > 2000 µg/mL
CO/C(C)=C1/NC(=O)[C@H]([C@@H](C)O)NC(=O)c2csc(n2)-c2cc(O)c(-c3nc(C(=O)N[C@@H](C)C(=O)NCCCP(=O)([O-])O)cs3)nc2-c2csc(n2)[C@@H]2COC(=O)c3c4c5c(cccc5n3O)COC(=O)[C@@H](O[C@H]3C[C@](C)(O)[C@H](N(C)C)[C@H](C)O3)[C@@H](OC4)[C@H](NC(=O)c3csc1n3)c1nc(cs1)C(=O)N2.[Na+] | 8 µg/mL | 0.25 µg/mL | 32 µg/mL |  | solubility [7]: > 1700 µg/mL
CO/C(C)=C1/NC(=O)[C@H]([C@@H](C)O)NC(=O)c2csc(n2)-c2cc(O)c(-c3nc(C(=O)N[C@@H](C)C(=O)NCCCO)cs3)nc2-c2csc(n2)[C@@H]2COC(=O)c3c4c5c(cccc5n3O)COC(=O)[C@@H](O[C@H]3C[C@](C)(O)[C@H](N(C)C)[C@H](C)O3)[C@@H](OC4)[C@H](NC(=O)c3csc1n3)c1nc(cs1)C(=O)N2 | 0.06 µg/mL (≈ 0.0401 µM) | 0.007 µg/mL (≈ 0.00467 µM) | 0.03 µg/mL (≈ 0.02 µM) | 1.25 mg/kg | solubility [6]: 2700 µg/mL (≈ 1800 µM)
CO/C(C)=C1/NC(=O)[C@H]([C@@H](C)O)NC(=O)c2csc(n2)-c2cc(O)c(-c3nc(C(=O)N[C@@H](C)C(=O)NCCS(=O)(=O)O)cs3)nc2-c2csc(n2)[C@@H]2COC(=O)c3c4c5c(cccc5n3O)COC(=O)[C@@H](O[C@H]3C[C@](C)(O)[C@H](N(C)C)[C@H](C)O3)[C@@H](OC4)[C@H](NC(=O)c3csc1n3)c1nc(cs1)C(=O)N2 | 0.25 µg/mL (≈ 0.162 µM) | 0.03 µg/mL (≈ 0.0194 µM) | 0.25 µg/mL (≈ 0.162 µM) | > 10 mg/kg | solubility [8]: > 2100 µg/mL
CO/C(C)=C1/NC(=O)[C@H]([C@@H](C)O)NC(=O)c2csc(n2)-c2cc(O)c(-c3nc(C(=O)N[C@@H](C)C(=O)NCCN(C)C)cs3)nc2-c2csc(n2)[C@@H]2COC(=O)c3c4c5c(cccc5n3O)COC(=O)[C@@H](O[C@H]3C[C@](C)(O)[C@H](N(C)C)[C@H](C)O3)[C@@H](OC4)[C@H](NC(=O)c3csc1n3)c1nc(cs1)C(=O)N2 | 0.125 µg/mL (≈ 0.0827 µM) | 0.125 µg/mL (≈ 0.0827 µM) | 0.25 µg/mL (≈ 0.165 µM) |  | solubility [9]: > 2400 µg/mL
CO/C(C)=C1/NC(=O)[C@H]([C@@H](C)O)NC(=O)c2csc(n2)-c2cc(O)c(-c3nc(C(=O)N[C@@H](C)C(=O)NCCCN4CCCC4)cs3)nc2-c2csc(n2)[C@@H]2COC(=O)c3c4c5c(cccc5n3O)COC(=O)[C@@H](O[C@H]3C[C@](C)(O)[C@H](N(C)C)[C@H](C)O3)[C@@H](OC4)[C@H](NC(=O)c3csc1n3)c1nc(cs1)C(=O)N2 | 0.25 µg/mL (≈ 0.161 µM) | 0.25 µg/mL (≈ 0.161 µM) | 0.5 µg/mL (≈ 0.322 µM) |  | solubility [5]: > 2600 µg/mL
CO/C(C)=C1/NC(=O)[C@H]([C@@H](C)O)NC(=O)c2csc(n2)-c2cc(O)c(-c3nc(C(=O)N[C@@H](C)C(=O)NCCc4ccc(S(=O)(=O)O)cc4)cs3)nc2-c2csc(n2)[C@@H]2COC(=O)c3c4c5c(cccc5n3O)COC(=O)[C@@H](O[C@H]3C[C@](C)(O)[C@H](N(C)C)[C@H](C)O3)[C@@H](OC4)[C@H](NC(=O)c3csc1n3)c1nc(cs1)C(=O)N2 | 0.5 µg/mL (≈ 0.308 µM) | 0.125 µg/mL (≈ 0.077 µM) | 1 µg/mL (≈ 0.616 µM) | > 10 mg/kg | solubility [10]: > 1200 µg/mL
C=C(NC(=O)c1csc(-c2nc3c(cc2O)-c2nc(cs2)C(=O)N[C@@H]([C@@H](C)O)C(=O)N/C(=C(\C)OC)c2nc(cs2)C(=O)N[C@@H]2c4nc(cs4)C(=O)N[C@@H](COC(=O)c4c5c6c(cccc6n4O)COC(=O)[C@@H](O[C@H]4C[C@](C)(O)[C@H](N(C)C)[C@H](C)O4)[C@H]2OC5)c2nc-3cs2)n1)C(N)=O [MJ347-81F4 A] | 0.007 µg/mL (≈ 0.00487 µM) | 0.002 µg/mL (≈ 0.00139 µM) | 0.03 µg/mL (≈ 0.0209 µM) | 0.8 mg/kg | solubility [4]: 340 µg/mL (≈ 237 µM)
